# Laboratory results: patent US10487112B2, “Pediococcus acidilactici derived antimicrobial hexapeptide and preparation method thereof” (Jiangnan University, priority 2016, dated 2019)
# Where two headings read alike, the source gives them in different places. No end group written: not given here.
# Experiments:
# Escherichia coli [1] = assay: Stability of lactein R16 in pH (antimicrobial experiment after pH treatment); format: physicochemical
# Experimental: 10 parts of purified active substance lactein R16 with the concentration of 100 mg·mL^−1 is selected, the pH of the lactein R16 is respectively regulated to be 1.0-10.0 by using 1.0 mol·L^−1 NaOH and 1.0 mol·L^−1 HCl, the lactein R16 is treated in a 37° C. water bath kettle for 2 h, then, the pH of the lactein R16 is regulated to be 4.5, and an antimicrobial experiment is performed to observe the inhibition of the lactein R16 to Escherichia coli. The result is shown as FIG. 2.
# The antimicrobial activity of the lactein R16 is reduced step by step when the pH is 6.0-8.0, the reduction tendency is slow, and the residual activity is maintained at about 75%, which proves that the stability of the lactein R16 is reduced to a certain extent under such pH condition, but the pH has little influences on the stability of the lactein R16.
# [2] = Antioxidant capability, clearing superoxide anions
# From the text: (§1) The feed contains a certain quantity of unsaturated fat, fatty acid, lipid-soluble vitamin, carotenoid and other lipid-soluble substances, which are easily oxidized in a storage process of the feed, and particularly fat and fatty acid can be oxidized to result in rancidity to generate different compounds such as aldehyde, alcohol, fat and acid which may generate various peculiar smells to seriously affect the palatability of the feed, and some compounds can generate adverse effects for the animals due to certain toxicity. The antioxidant capability of the lactein R16 to hydrogen peroxide, hydroxyl radicals, DPPH.radicals and superoxide anions is shown as FIG. 5.
# [3] = Antioxidant capability, clearing DPPH radicals
# From the text: as §1
# Pediococcus pentosaceus = assay: Influences on probiotics, viable count; format: cell-based; conditions: MRS medium with 6.4 mg·mL^−1, 37° C., 24 h
# Experimental: (§2) Each of probiotics is subjected to two-stage activation, is inoculated into an MRS culture medium containing 6.4 mg·mL^−1 of antimicrobial active substances according to the inoculation amount of 1% and is cultured at the constant temperature of 37° C. for 24 h in contrast with the probiotics inoculated into the MRS culture medium. Coated plate counting is performed by using a viable count method. The result is shown as FIG. 4.
# (§3) A microecological preparation used as one of green feed additives is widely applied to the feed, wherein a composite microecological preparation prepared from Saccharomycetes, Lactic Acid Bacteria and Bacillus is more common, not only can degrade and soften crude fibers and increase the content of proteins, but also can improve the palatability of the feed, regulate the intestinal microecological balance of the animals and promote digestive absorption and growth. Saccharomyces cerevisiae, Pediococcus pentosaceus, Enterococcus faecium, Lactobacillus plantarum and Bacillus subtilis are selected as a study object to study the influences of the lactein R16 on Saccharomyces cerevisiae, Pediococcus pentosaceus, Enterococcus faecium, Lactobacillus plantarum and Bacillus subtilis, and the result is shown as FIG. 4.
# Enterococcus faecium = assay: Influences on probiotics, viable count; format: cell-based; conditions: MRS medium with 6.4 mg·mL^−1, 37° C.
# Experimental: as §2, §3
# Saccharomyces cerevisiae = assay: Influences on probiotics, viable count; format: cell-based; conditions: MRS medium with 6.4 mg·mL^−1, 37° C., 24 h
# Experimental: as §2, §3
# Lactobacillus plantarum = assay: Influences on probiotics, viable count; format: cell-based; conditions: MRS medium with 6.4 mg·mL^−1, 37° C., 24 h
# Experimental: as §2, §3
# Bacillus subtilis = assay: Influences on probiotics, viable count; format: cell-based; conditions: MRS medium with 6.4 mg·mL^−1, 37° C.
# Experimental: as §2, §3
# Escherichia coli [4] = assay: Thermal stability of lactein R16 (antimicrobial experiment after heat treatment); format: physicochemical
# Experimental: 8 parts of purified active substance lactein R16 with the concentration of 100 mg·mL^−1 is selected and is respectively treated at 40° C., 50° C., 60° C., 70° C., 80° C., 90° C. and 100° C. for 30 min and is subjected to high-pressure sterilization at 121° C. for 15 min, and an antimicrobial experiment is performed to observe the inhibition of the lactein R16 to Escherichia coli. The result is shown as FIG. 3.
# The antimicrobial activity of the lactein R16 is lost by 59.98% after the lactein R16 is treated at 121° C. for 15 min.
# [5] = test system: Escherichia coli ATCC 25922; assay: Antimicrobial spectrum, oxford-cup method; format: cell-based; parameters: key: “+++” represents for strong inhibition; “++” represents for relatively strong inhibition; “+” represents for inhibition; “−” represents for no inhibition; conditions: 100 mg·mL^−1, oxford-cup
# Experimental: (§4) 8 parts of purified active substance lactein R16 with the concentration of 100 mg·mL^−1 is selected, and an inhibiting effect of the lactein R16 on Escherichia coli, Listeria monocytogenes and Staphylococcus aureus is detected by using an oxford-cup method.
# [6] = test system: Escherichia coli in the soybean meal; assay: Inhibition of Escherichia coli in fermented soybean meal; format: cell-based; conditions: 48 h; for removal rate: 37° C.
# Experimental: (a) crushing soybean meal by using a blade crusher, adding 4 parts (the weight of each part is 40 g) of soybean meal with the serial numbers of group 5, group 6, group 7 and group 8 into a 500 mL fermentation flask, and carrying out sterilization at 105° C. for 10 min;
# (b) carrying out fermentation under conditions shown as table 3.
# (c) measuring the amount of Escherichia coli according to the natural standard for measuring Escherichia coli in the feed.
# The inhibiting effect of the lactein R16 to Escherichia coli in the soybean meal is studied by adding Escherichia coli into the sterilized soybean meal.
# [7] = Antioxidant capability, clearing hydroxyl radicals
# From the text: as §1
# [8] = Antioxidant capability, clearing hydrogen peroxide
# From the text: as §1
# Escherichia coli JM109 = assay: Antimicrobial spectrum, oxford-cup method; format: cell-based; parameters: key to Antimicrobial level: “+++” represents for strong inhibition; “++” represents for relatively strong inhibition; “+” represents for inhibition; “−” represents for no inhibition; conditions: 100 mg·mL^−1, oxford-cup
# Experimental: as §4
# [9] = test system: Staphylococcus aureus ATCC 6538; assay: Antimicrobial spectrum, oxford-cup method; format: cell-based; parameters: key to Antimicrobial level: “+++” represents for strong inhibition; “++” represents for relatively strong inhibition; “+” represents for inhibition; “−” represents for no inhibition; conditions: 100 mg·mL^−1, oxford-cup
# Experimental: as §4
# [10] = test system: Listeria monocytogenes CMCC(B)54002; assay: Antimicrobial spectrum, oxford-cup method; format: cell-based; parameters: key to Antimicrobial level: “+++” represents for strong inhibition; “++” represents for relatively strong inhibition; “+” represents for inhibition; “−” represents for no inhibition; conditions: 100 mg·mL^−1, oxford-cup
# Experimental: as §4
# Escherichia coli K99 = assay: Antimicrobial spectrum, oxford-cup method; format: cell-based; parameters: key to Antimicrobial level: “+++” represents for strong inhibition; “++” represents for relatively strong inhibition; “+” represents for inhibition; “−” represents for no inhibition; conditions: 100 mg·mL^−1, oxford-cup
# Experimental: as §4
# [11] = test system: Listeria monocytogenes CMCC(B)54002; assay: Minimum inhibitory concentration (MIC) method; format: cell-based; conditions: LB medium, 37° C., 18-24 h
# Experimental: (§5) The antimicrobial activity is detected by adopting a minimum inhibitory concentration (MIC) method, and the operation is as follows:
# (§6) (a) inoculating the bacteria into an LB liquid culture medium according to the inoculation amount of 1%, and carrying out shaking culture over the night at 37° C. and 200r·min^−1;
# (§7) (b) inoculating the culture solution into 20 mL of the LB liquid culture medium according to the inoculation amount of 1%, and carrying out shaking culture at 37° C. and 200r·min′ until the OD600 is equal to about 0.5; […]
# (§8) (e) adding 450 μL of the prepared bacterial suspension into an aseptic tissue culture plate, and then, respectively adding 50 μL of antimicrobial active substance diluents with corresponding concentrations to ensure that the concentrations of to-be-measured antimicrobial active substances are respectively 25.6, 12.8, 6.4, 3.2, 1.6, 0.8, 0.4, 0.2 and 0.1 mg·mL^−1; and carrying out culture in a 37° C. constant-temperature incubator for 18-24 h by taking 500 μL of the bacterial suspension as a positive control and 500 μL of the LB liquid culture medium as a negative control; and […]
# [12] = test system: Staphylococcus aureus ATCC 6538; format: cell-based
# Experimental: as §5, §6, §7, §8
substance,measurement,setting,value
"ENGEEE [lactein R16, ENGEEE]",pH at which the antimicrobial activity reaches the maximum,"Escherichia coli [1]; 100 mg·mL^−1, pH 1.0-10.0, 37° C. water bath 2 h, then pH 4.5, inhibition of Escherichia coli",3.0-5.0
same,residual activity,"Escherichia coli [1]; pH 6.0-8.0, 37° C. 2 h, inhibition of Escherichia coli",about 75%
same,pH stability,Escherichia coli [1]; summary statement,good
same,clearance rate,[2],10.11%
same,clearance rate,[3],79.42%
same,change of total bacterial count as comparison with contrast,Pediococcus pentosaceus,no obvious changes
same,total bacterial count after growing for 24 h,Enterococcus faecium,about 10^8 CFU·mL^−1
same,total bacterial count reduced as comparison with contrast,Enterococcus faecium; 24 h,6.92%
same,amount of Saccharomyces cerevisiae increased as comparison with contrast,Saccharomyces cerevisiae,24.50%
same,effect on Saccharomyces cerevisiae (in words),Saccharomyces cerevisiae,a certain effect on proliferating
same,effect on Lactobacillus plantarum (in words),Lactobacillus plantarum,a certain effect on proliferating
same,total bacterial count after growing for 24 h,Bacillus subtilis,about 10^8 CFU·mL^−1
same,total bacterial count reduced as comparison with contrast,Bacillus subtilis; 24 h,4.03%
same,activity retained in the process of pelletizing,Escherichia coli [4]; pelletizing at 75-85° C. for 1-2 min,completely retained
same,thermal stability,Escherichia coli [4]; summary statement,good
same,change of antimicrobial activity,"Escherichia coli [4]; treated at 40, 50, 60, 70 and 80° C. for 30 min, 100 mg·mL^−1",no obvious changes
same,antimicrobial activity lost,Escherichia coli [4]; treated at 90° C. for 30 min,21.95%
same,antimicrobial activity lost,Escherichia coli [4]; treated at 100° C. for 30 min,49.47%
same,antimicrobial activity lost,Escherichia coli [4]; treated at 121° C. for 15 min (high-pressure sterilization),59.98%
same,Antimicrobial level,[5],+
same,amount of Escherichia coli after fermentation,"[6]; 0.512 g in 40 g soybean meal, material-to-liquid ratio 1:0.8, 37° C., 1380·100 g^−1 before fermentation",123 ·100 g^−1
same,removal rate,"[6]; material-to-liquid ratio 1:0.8, 0.512 g in 40 g soybean meal",33.44%
same,removal rate,"[6]; material-water ratio 1:0.12, 0.512 g in 40 g soybean meal",56.64%
same,clearance rate,[7],70.13%
same,clearance rate,[8],25.65%
same,Antimicrobial level,Escherichia coli JM109,++
same,antimicrobial activity (in words),Escherichia coli JM109,relatively strong antimicrobial activity
same,Antimicrobial level,[9],+++
same,antimicrobial activity (in words),[9],strongest
same,Antimicrobial level,[10],++
same,antimicrobial activity (in words),[10],relatively strong antimicrobial activity
same,Antimicrobial level,Escherichia coli K99,++
same,antimicrobial activity (in words),Escherichia coli K99,relatively strong antimicrobial activity
same,MIC,[11],6400 µg/mL
same,MIC,[12]; ATCC 6538,3400 µg/mL
same,MIC,"[12]; LB medium, 37° C., 18-24 h",3200 µg/mL
